In one assay the target is T1, dried fibrin (Homo sapiens, UniProt P02671+P02675+P02679).
T1 construct: Thrombin cleavage at the Arg16-Arg17 bond in the Ax chains and at the Arg14-Gly15 bond on the BP chains releases fibrinopeptides A and B; host or cells: fibrinogen solution clotted with thrombin in 96-well plates and dried at 37 C
T1 sequence (P02671 36-629 limits assumed): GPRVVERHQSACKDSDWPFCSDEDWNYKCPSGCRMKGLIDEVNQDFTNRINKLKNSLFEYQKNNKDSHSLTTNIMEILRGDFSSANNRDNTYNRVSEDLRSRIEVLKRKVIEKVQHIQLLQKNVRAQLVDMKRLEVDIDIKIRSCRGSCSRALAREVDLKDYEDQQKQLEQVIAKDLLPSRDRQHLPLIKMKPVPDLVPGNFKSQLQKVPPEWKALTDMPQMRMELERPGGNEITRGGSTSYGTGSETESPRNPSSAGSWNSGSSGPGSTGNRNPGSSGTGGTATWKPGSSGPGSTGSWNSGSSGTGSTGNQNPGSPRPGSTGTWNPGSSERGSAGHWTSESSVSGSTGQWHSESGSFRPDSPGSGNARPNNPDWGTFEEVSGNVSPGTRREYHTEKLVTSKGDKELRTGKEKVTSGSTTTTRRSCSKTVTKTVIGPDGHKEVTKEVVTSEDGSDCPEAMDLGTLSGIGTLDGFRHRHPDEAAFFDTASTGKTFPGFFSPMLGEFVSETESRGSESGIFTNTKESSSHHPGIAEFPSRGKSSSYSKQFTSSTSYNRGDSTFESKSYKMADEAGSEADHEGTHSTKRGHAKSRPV
T1 sequence (P02675 45-491 limits assumed): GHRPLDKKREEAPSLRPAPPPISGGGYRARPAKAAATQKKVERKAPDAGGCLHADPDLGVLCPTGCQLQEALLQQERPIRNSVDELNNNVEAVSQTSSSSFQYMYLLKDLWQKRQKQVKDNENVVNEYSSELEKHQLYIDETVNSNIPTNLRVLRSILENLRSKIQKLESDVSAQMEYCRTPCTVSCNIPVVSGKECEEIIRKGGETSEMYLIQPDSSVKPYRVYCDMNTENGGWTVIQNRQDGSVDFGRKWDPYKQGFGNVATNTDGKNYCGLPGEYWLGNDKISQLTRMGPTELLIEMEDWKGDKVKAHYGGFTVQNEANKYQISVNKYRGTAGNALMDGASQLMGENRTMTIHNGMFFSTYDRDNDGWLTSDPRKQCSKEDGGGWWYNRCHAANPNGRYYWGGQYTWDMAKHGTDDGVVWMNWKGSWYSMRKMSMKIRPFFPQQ
T1 sequence (P02679 27-437 isoform P02679-2 limits assumed): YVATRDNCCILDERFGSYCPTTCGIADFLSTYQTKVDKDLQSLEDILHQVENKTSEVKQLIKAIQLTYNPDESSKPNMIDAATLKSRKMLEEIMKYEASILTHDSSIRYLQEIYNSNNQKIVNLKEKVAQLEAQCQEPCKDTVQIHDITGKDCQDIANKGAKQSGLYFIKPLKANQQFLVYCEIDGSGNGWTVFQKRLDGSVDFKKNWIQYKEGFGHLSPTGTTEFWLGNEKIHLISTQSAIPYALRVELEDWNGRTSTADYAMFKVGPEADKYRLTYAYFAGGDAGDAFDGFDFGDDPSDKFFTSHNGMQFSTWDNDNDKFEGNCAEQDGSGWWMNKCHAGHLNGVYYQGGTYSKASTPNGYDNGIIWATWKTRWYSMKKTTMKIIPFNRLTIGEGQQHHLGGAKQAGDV
The assay is described as follows: dissociation constant against dried fibrin (free peptide by mass spectrometry). It is filed as binding. The protocol: A fibrinogen solution was prepared at 10 mg/ml (or at twice the concentration of fibrin desired) in TBS buffer (50 mM Tris, 150 mM NaCl, pH 7.4). The fibrinogen solution typically contained ˜17 mM citrate. Subsequently, a solution was prepared containing 2 U/ml thrombin, 20 mM CaCl2, and 5 mM ε-aminocaproic acid in TBS. The fibrinogen solution and thrombin solution were mixed 1:1 in the wells of a 96-well plate, aliquoting 50 μL of each solution in each well (total volume=100 μL). The plates were evaporated to dryness overnight at 37° C. The polypeptide to be tested, dissolved in water, was added to each well at concentrations between 1-200 μM. A typical binding assay contained 24 points at concentrations of 2, 4, 6, 8, 10, 12, 14, 17, 20, 23, 26, 30, 35, 40, 45, 50, 60, 70, 80, 100, 125, 150, 175, and 200 μM. The plate containing the peptide and (rehydrated) dried fibrin was covered and incubated at 37° C. on a shaker table for 2 hours.
The supernatant in each well was removed by pipette and the concentration of the polypeptide was measured by mass spectrometry. The ion current detected at the mass of the peptide was monitored after injection of a sample into the mass spectrometer. The area-under-the-peak was quantitated and compared to standards of known concentration. The concentration of peptide in the supernatant is equal to the concentration of free peptide. The concentration of bound peptide was determined by subtracting the concentration of free peptide from the total (starting) concentration. A plot of [Bound Peptide] vs. [Free Peptide] was used to determine the Kd and the concentration of bound peptide at saturation. The curve was fit to the equation: [Bound]=N×[Free]/(Kd+[Free]) where [Bound] is the concentration of bound polypeptide, [Free] is the concentration of free polypeptide, Kd is the dissociation constant (equal to the reciprocal of Ka) and N is the concentration of binding sites. The number of binding sites per fibrin molecule was equal to the lo concentration of binding sites determined by the [Bound Polypeptide] vs. [Free Polypeptide] plot, divided by the concentration of fibrin (15 μM) used in the assay.

The target of the next assay is T2, DD(E) (Homo sapiens, UniProt P02671+P02675+P02679).
T2 construct: host or cells: purchased fibrinogen clotted with thrombin, digested with plasmin, then purified by ammonium sulfate cuts and Sephacryl S200
The assay is described as follows: dissociation constant against fibrin-derived polypeptide DD(E). Type of assay: binding. Particulars: read-out: Kd DD(E). The method, then: The soluble fibrin-derived polypeptide DD(E) was prepared following a modification of a published method (Moskoitz and Budzynksi, Biochemistry, 33: 12937-12944 (1994) and references therein). Fibrinogen containing a Factor XIII trace impurity (1 g, Grade L; purchased from American Diagnostica) was dissolved in TBS buffer and dialyzed overnight against TBS containing 5 mM citrate. The fibrinogen concentration was adjusted to 3.0 mg/ml and CaCl2 was added to a concentration of 10 mM. Clotting of the fibrinogen was initiated by the addition of thrombin to 0.5 U/ml and the clot was incubated for 3 hours at 37° C. The clot was cut up with a spatula to release water and to concentrate the clot. The clot pieces were washed twice with TBS.Ca buffer (TBS containing 2 mM CaCl2) and were centrifuged at 4,000×g to compact the clots between washes. The clot material was resuspended in 250 ml TBS containing 25 mM CaCl2 and 2 K.I.U. plasmin per mg fibrin. The clots were digested overnight at 20° C. Undigested clot was removed by pipette, and the supernatant was shaken with 10 ml of Lysine Sepharose (Pharmacia) for 30 minutes and filtered to remove the resin. Aprotinin was added to the filtrate to a concentration of 500 U/μL. Ammonium Sulfate was added to 30% saturation and the precipitated protein was removed by centrifugation. More ammonium sulfate was added to the supernatant to a final concentration of 50% saturation, and the precipitated protein was concentrated by centrifugation. The pellets, containing DD(E), were resuspended in a small volume of buffer (50 mM Tris, 150 mM NaCl, 2 mM CaCl2) (<10 ml) and chromatographed on a Sephacryl S200 (Pharmacia) size exclusion column (5×100 cm) in the same buffer. Fractions of protein eluted from the column were assayed by SDS-PAGE for DD(E). DD(E) contains subunits of 55 kD (Fragment E) and 190 kD (Fragment DD). […]
Dissociation constants were determined against DD(E) as described above.

The next assay concerns the target T3, fibrin (Homo sapiens, UniProt P02671+P02675+P02679).
T3 construct: Thrombin cleavage at the Arg16-Arg17 bond in the Ax chains and at the Arg14-Gly15 bond on the BP chains releases fibrinopeptides A and B; host or cells: fibrinogen solution clotted with thrombin in 96-well plates and dried at 37 C
T3 sequence (P02671 36-629 limits assumed): T1 sequence (P02671 36-629 limits assumed)
T3 sequence (P02675 45-491 limits assumed): T1 sequence (P02675 45-491 limits assumed)
T3 sequence (P02679 27-437 isoform P02679-2 limits assumed): T1 sequence (P02679 27-437 isoform P02679-2 limits assumed)
The assay is described as follows: dried fibrin plate ELISA of phage isolates. It is filed as binding. The settings on record: phage isolates from TN7 library; symbols not defined. The protocol:
For screening libraries to isolate binding moieties for fibrin, two fibrin targets, i.e., synthetic fibrin clots and then a soluble fibrin fragment, DD(E), were prepared. To prepare fibrin for screening, dilute fibrin clots were formed in the wells of a 96-well plate, dried down to a thin layer, and then rehydrated prior to library screening. In a typical procedure, a 0.15 mg/ml fibrinogen solution was prepared in TBS buffer (50 mM Tris, 150 mM NaCl, pH 7.4). A solution containing 2 U/ml thrombin, 10 mM CaCl2, and 5 mM ε-aminocaproic acid in TBS was prepared. The fibrinogen solution and thrombin solution were mixed 1:1 in the wells of a 96-well plate, aliquoting 25 μL of each solution in each well (total volume=50 μL). The plates were evaporated to dryness by incubating them at 37° C. overnight. Just before a phage library was added to the dried fibrin target, the fibrin wells were washed three times for 10 minutes with phage blocking buffer (TBS containing 2 mM CaCl2, 0.1% Tween-20, and 0.1% human serum albumin (HSA)).
After five rounds of selection, the eluted phage were propagated and a portion plated to isolate phage plaques arising from individual clones. Ninety such clones were selected randomly, propagated, and tested individually for binding to fibrin in a dried fibrin plate assay. Dried fibrin plates were prepared as described above for the library screening. Phage samples (˜10^9 phage each) were incubated in the dried fibrin plate wells in binding buffer (50 mM Tris, 150 mM NaCl, 2 mM CaCl2, 0.05% Tween-20) containing 0.1% HSA. After 1 hour, the plates were washed 5 times with binding buffer. Anti-M13 antibody conjugated to horseradish peroxidase (Pharmacia) was added at 1/5000 dilution in binding buffer to the wells and incubated with the fibrin for 1 hour. The wells were again washed 5 times with binding buffer and the presence of the antibody/phage/fibrin complex was measured with HRP calorimetric reagents (3,3′,5,5′-tetrarnethylbenzidine (TMB) and H2O2). A high absorbance at 595 nm (due to oxidized TMB) was indicative of a tight phage/fibrin interaction, and phage clones corresponding to those wells were identified as bearing fibrin-binding moieties.
The amino acid sequence data from these phage isolates were sorted according to the degree of similarity and response in the fibrin ELISA assay.

Assay [1] concerns the target DD(E) soluble fibrin-derived polypeptide (UniProt P02671). The experiment in a line: Kd against DD(E) target, 'as described above'.

Bridge positions count the residues as written; N and C are the ends. Peptide text beside a SMILES is read from it.

As to `CC(C)C[C@H](NC(=O)[C@@H]1CSSC[C@H](NC(=O)[C@@H]2CCCN2C(=O)[C@@H](N)CC(C)C)C(=O)N[C@@H](CC(=O)O)C(=O)N[C@@H](Cc2ccc(O)cc2)C(=O)N[C@@H](Cc2ccc(O)cc2)C(=O)NCC(=O)N[C@@H](C)C(=O)N1)C(=O)N[C@@H](CC(=O)O)C(N)=O` [SEQ ID NO: 46, LPCDYYGACLD] (H-LPCDYYGACLD-NH2; disulfide 3-9), the Kd at dried fibrin and on DD(E) was over 100 µM in each case.

Take `CC(C)C[C@H](NC(=O)[C@@H]1CSSC[C@H](NC(=O)[C@H](C)NC(=O)[C@@H](N)Cc2ccccc2)C(=O)N[C@@H](Cc2c[nH]cn2)C(=O)N[C@@H](Cc2ccc(O)cc2)C(=O)N[C@@H](Cc2ccc(O)cc2)C(=O)NCC(=O)N[C@@H]([C@@H](C)O)C(=O)N1)C(=O)N[C@@H](Cc1c[nH]cn1)C(N)=O` [SEQ ID NO: 7, FACHYYGTCLH] (H-FACHYYGTCLH-NH2; disulfide 3-9): the dissociation constant (Kd) at dried fibrin stood at 23 µM; on DD(E) it was 7.3 µM. Regarding “8 (RPCDYYGTCFD; synthetic fibrin binding peptide) [compound 8]”, the relative binding result with fibrin is “+ + +”. On the same count and under the same terms, next, “5 (RSCNYYGTCLH; synthetic fibrin binding peptide) [compound 5]”: “+ + +”. As to H-LPSDYYGTSLD-NH2 [compound 38], the Kd at dried fibrin and on DD(E) was over 100 µM each time. Turning to “9 (LPCDYYGTCLD; synthetic fibrin binding peptide) [compound 9]”, the relative binding entry with fibrin was “+ + +”. On the same count and under the same terms, to “4 (YYGT; recurrent motif among synthetic fibrin binding peptides) [compound 4]” belongs “+ + +”. With `CC(C)CC(N)C(=O)N1CCCC1C(=O)NC1CSSCC(C(=O)NC(CC(C)C)C(=O)NC(CC(=O)O)C(N)=O)NC(=O)C(C(C)O)NC(=O)CNC(=O)C(Cc2ccc(O)cc2)NC(=O)C(Cc2ccc(O)cc2)NC(=O)C(CC(=O)O)NC1=O` (stereo not shown) [SEQ ID NO: 9, LPCDYYGTCLD], the Kd at dried fibrin was found to be 2.7 µM; at DD(E) it was 2.6 µM. On to `CC(C)C[C@H](NC(=O)[C@@H]1CSSC[C@H](NC(=O)[C@@H]2CCCN2C(=O)[C@@H](N)CC(C)C)C(=O)N[C@@H](C)C(=O)N[C@@H](Cc2ccc(O)cc2)C(=O)N[C@@H](Cc2ccc(O)cc2)C(=O)NCC(=O)N[C@@H]([C@@H](C)O)C(=O)N1)C(=O)N[C@@H](CC(=O)O)C(N)=O` [SEQ ID NO: 42, LPCAYYGTCLD] (H-LPCAYYGTCLD-NH2; disulfide 3-9), for which the Kd on dried fibrin turned out to be 23 µM; at DD(E) it was 5.9 µM.

Take “6 (HDCQYYGTCLH; synthetic fibrin binding peptide) [compound 6]”: in the assay with fibrin, the relative binding result is “+ + +”.

“7 (FACHYYGTCLH; synthetic fibrin binding peptide) [compound 7]”: in the assay with fibrin, the relative binding entry is recorded as “+ + +”.

On to “10 (FSCWYSLHCHR; synthetic fibrin binding peptide) [compound 10]”, for which the relative binding entry with fibrin is recorded as “+ + +”. RFLCYDSYYHWWCSHH (peptide, not shown: large carriers) gave a Kd in assay [1] of 10 µM. Molecule NHGCYNSYGVPYCDYS (peptide, not shown: large carriers) registered a Kd in assay [1] of 2.7 µM.

These data come from patent US20050261472A1, “Binding moieties for fibrin” (Dyax Corp., priority 1999, published 2005).
